The values below come from patent US20070135398A1, “Process for the preparation of ciclesonide” (priority 2005, published 2007).

Series [1] can be described thus: Decomposition in ethanol-water mixture. It is filed as physicochemical. The following applies: 20 mg in 6 mL ethanol and 4 mL purified water, 80° C., 64 hours. The method, then:
The HPLC analysis was carried out using the following equipment and methodology. The column was a Prodigy ODS, 220×4.6 mm, 5 μm. The eluent was ethanol/water 50/50 at a flow rate of 2 mL/min. The detector was an UV-DAD at 242 nm.
Decomposition in Ethanol-Water Mixture
20 mg ciclesonide were dissolved in 6 mL ethanol and 4 mL purified water and the solution was kept at 80° C. for 64 hours.

For series [2] the following is noted: ester prodrug; Current Opinion in Investigational Drugs 2002, 3(1) 78-83; cited from earlier work.

Each structure is given as a SMILES string.

Regarding `CC(C)C(=O)OCC(=O)[C@@]12O[C@H](C3CCCCC3)O[C@@H]1C[C@H]1[C@@H]3CCC4=CC(=O)C=C[C@]4(C)[C@H]3[C@@H](O)C[C@@]12C` [ciclesonide, pregna-1,4-diene-3,20-dione, 16,17-[[(R)-cyclohexylmethylene]bis(oxy)]-11-hydroxy-21-(2-methyl-1-oxopropoxy)-(11β,16α)-(9CI)], in series [1], the “formation of the corresponding 21-hydroxy analogue” value amounted to 3.99%. Further, in series [1] (initial purity 99.74%), the “purity after storage in ethanol/water solution” value is listed as 95.34%. In series [2], the oral bioavailability result is given as “essentially devoid of oral bioavailability”.
